Laboratory results taken from patent publication US20240374563A1, “ANTICHOLINERGIC COMPOUNDS FOR USE IN TREATING NEUROMUSCULAR DISORDERS” (UNIVERSITY OF MONTRÉAL, priority 2022, published 2024).

Legend:
PSC purinergic receptors = test: Calcium imaging of PSCs: Ca2+ responses to local ATP application; type: in vivo, SOD1^G37R mice
SOD1^G37R mice [1] = test: Motor neuron counts in lumbar spinal cord sections (ChAT/NeuN); type: in vivo, mouse; settings: P520, treatment from disease onset, p<0.0001
From the text: We prepared lumbar spinal cords sections as previously described[6] and labeled MNs with the cholinergic neuronal marker ChAT and the general neuronal nuclei marker NeuN to identify α-MNs. Neurons positive for both markers located in the ventral horn were counted as α-MNs.
Motor neuron counts: Mouse were perfused transcardially and lumbar spinal cord were subsequently dissected, cryoprotected in a 30% sucrose solution and frozen using dry ice. Floating lumbar spinal cord cryosections were processed as previously described. Spinal cords cryosections were double stained against Choline Acetyl-Transferase (ChAT: 1:100; Goat; Millipore, Canada; AB144P) and the neuronal marker Neuronal Nuclei (NeuN; 1:300; Mouse IgG1; Millipore; MAB377). ChAT and NeuN positive cells were identified as α-MNs[4]. A minimin of twenty lumbar spinal cord sections per animal were analysed and double-positive cells from each ventral horns were quantified.

SOD1^G37R mice [2] = test: EDL contractile force with muscle force transducer (force-frequency curve, contractile capacity ratio); type: in vivo, mouse
From the text: To investigate this, we used a musde force transducer to measure the force generated by EDL muscles elicited by stimulation of the motor nerve and/or by the direct muscle stimulation (FIG. 5A). With this system, stimulation of the motor nerve at various frequencies elicits muscle contraction through NMJ efficacy, reflecting the strength of contractile fibers associated with innervated NMJs only. Muscle stimulation, on the contrary, depolarizes all muscle fibers and reflect maximal twitch force of all the muscle, independent of the innervation status.
These values represent respectively 55% and 30% of the WT mean twitch force value (FIG. 5B; Dari N=8, Placebo N=8; p<0.01, Repeated Two-way ANOVA). Contractile forces generated differed between the two groups from 70 Hz to 300 Hz (FIG. 5B; Dari N=8, Placebo N=8; p<0.05, Two-way ANOVA, Bonferroni post hoc test). […] This is indicative of the preservation of the fast-twitch properties of the EDL (FIG. 5C; Dari N=8, Placebo N=8; p<0.05 et p<0.01, unpaired t-tests at each frequency).
We next determined the proportion of the muscle capacity that is used by the neuromuscular system upon nerve stimulation. This was expressed as the contractile capacity ratio calculated as follow: […]
The EDL and SOL nerve-muscle preparations were attached vertically to a fixed force transducer (model 402 A-500 mN, Aurora Scientific Inc.) using surgical threads. The preparations were attached at the tendons level to the transducer at one extremity and to an adaptable hook at the opposite extremity. A platinum reference electrode was then juxtaposed ot the muscle, positioned near an extremity of the muscle, close to a tendon. To stimulate the muscle, a second platinum electrode was juxtaposed at the other extremity of the muscle. To elicit muscle contractions from motor nerve and neuromuscular activity, the tibial nerve (SOL) or the deep peroneal nerve (EDL) motor nerve was suctioned into an electrode made of PE tubing and filled with Ringer's solution. […] Neuromuscular contractile basal force responses were elicited by a single supra-maximal square-wave of 500 mV, 0.1 ms pulse imposed on the motor nerve. Muscle contractile basal force responses were elicited by square pulse stimulation of 15 V, 1 ms. Optimal muscle length was determined by gradually stretching the muscle until maximal contractile force output was attained.
Force-frequency curve: Nerve and muscle stimulations were performed to generate a standard force-frequency curve. Alternate nerve and muscle stimulations were performed at various frequencies (5 Hz, 10 Hz, 20 Hz, 30 Hz, 40 Hz, 50 Hz, 60 Hz, 70 Hz, 80 Hz, 90 Hz, 100 Hz, 120 Hz, 140 Hz, 160 Hz, 180 Hz, 200 Hz, 250 Hz and 300 Hz) and the force generated monitored. There was a 2-minute rest period between each stimulation.

SOD1^G37R mice [3] = test: EDL muscle weight; type: in vivo, mouse
SOD1^G37R mice [4] = test: Grip strength; type: in vivo, mouse; settings: from P490 until the end of the trial; treatment from disease onset; N=19
From the text: Mice of the darifenacin and placebo groups began the trial with a similar grip strength force.
(§1) The pre-clinial trial design was made according to guidelines for preclinical animal research in ALS/MND [35]. Male mice from the SOD1^G37R background and their WT littermates were included in the preclinical study. Mice were randomly assigned to the experimental or the placebo group. Treatment, behavior monitoring, experiments and results analysis were done blindly. Standard ALS behavioral measurements were performed biweekly to measure disease progression in the various study groups. This includes rotarod test. grip strength measurements, weight measurements and tail suspension test to assess hindlimb extension reflex.

SOD1^G37R mice [5] = test: Body weight loss; type: in vivo, mouse; settings: at P520; treatment from disease onset; N=21
From the text: To this end, we monitored the changes in the body weight of the animals, a metric that is directly related to the progression of the disease and survival whereby animals present an important gradual body weight loss after symptoms onset.
as §1

SOD1^G37R mice [6] = test: Rotarod acceleration protocol; type: in vivo, mouse
Experimental: Third, the motor performance, balance and coordination, were measured using a standard acceleration protocol on the Rotarod (FIG. 8A), which is known to reveal ALS motor deficits as disease progresses.
Motor coordination, strength and balance were assessed using a rotarod (TSE Rotarod, TSE Systems Gmbh, Germany). Animals were placed onto a rotating wheel at a starting speed of 4 rpm, increasing to 40 rpm in 300 seconds. Mice had two attempts per session to remain on the rotarod during the acceleration protocol, and the longest latency to fall was counted.

SOD1^G37R mice [7] = test: Gait analysis (footprint test); type: in vivo, mouse; settings: P520; treatment from disease onset; N=8
Experimental: Finally, we aimed to better characterize the walking pattern of the mice following treatment. We measured the gait by performing a footprint analysis using inked paws.
Gait was assessed using the footprint test. Paws were inked with a nontoxic paint (fore-paws in blue and hind-paws in red), mice were placed on a restricted pathway on a white paper sheet (30 cm long, 6 cm wide) and free to walk along the walkway. Five footsteps from each run were measured for the following parameters (cm): (1) stride length ([…]) and (2) Step width (distance between left and right paws). The mean value of each set of outcomes was calculated for statistical analysis.

[8] = Darifenacin level in blood; type: in vivo; settings: SOD1 mice after oral treatment; levels consistent with pre-clinical data; data not shown
Experimental: We opted for the dosage at 10 mg/kg since the primary goal is to restore PSCs activity by dampening their muscarinic activity close to WT levels. […] These were both essential steps to pursue the study.

With `NC(=O)C(c1ccccc1)(c1ccccc1)[C@@H]1CCN(CCc2ccc3c(c2)CCO3)C1` [darifenacin] the “PSC Ca2+ response to ATP, Darifenacin vs DMSO vs non-treated wild type” value (PSC purinergic receptors; SOD1G37R mice, 10 mg/kg orally for 5 days) was “no difference”, the “effect on purinergic signaling of PSCs (Ca2+ responses to local ATP)” value (PSC purinergic receptors; SOD1 mice, 10 or 15 mg/kg for 30 days) was “no effect” and the “α-MN count per ventral horn vs placebo” value (SOD1^G37R mice [1]) was “significantly higher”. The “peak EDL muscle force, nerve or muscle stimulation, vs placebo” value (SOD1^G37R mice [2]; 5 Hz-300 Hz, pre-onset treatment P400 until P520, N=4) was “no difference”, the “EDL twitch force, nerve stimulation” value (SOD1^G37R mice [2]; force-frequency protocol 5 Hz-300 Hz, treatment from disease onset, N=8) was 138.0±9.1 mN and the “EDL twitch force as % of the WT mean twitch force value” (SOD1^G37R mice [2]; nerve stimulation, treatment from disease onset) was 55%. For the same compound, the “animals discarded for early onset of forelimb paralysis, final stage at P490” value (SOD1^G37R mice [2]; pre-onset treatment from P400) was “two”, the EDL muscle weight (SOD1^G37R mice [3]; pre-onset treatment P400 until P520, N=4, n=7) was 9.1 ± 0.55 mg and the EDL muscle weight (SOD1^G37R mice [3]; treatment from disease onset, N=8, n=16) was 11.79 ± 0.34 mg. For the same compound, the “grip strength vs placebo” value (SOD1^G37R mice [4]) was “performed better”, the body weight loss (SOD1^G37R mice [5]) was 20.0±1.9% and the “Rotarod latency to fall vs placebo” value (SOD1^G37R mice [6]; at P520 and P525, treatment from disease onset, N=22) was “significantly higher score”. For the same compound, the “share of group still able to stand for several seconds on the rotating rod” value (SOD1^G37R mice [6]; late symptomatic stage, data not shown) was “more than half”, the step width (SOD1^G37R mice [7]) was 2.62±0.16 cm and the stride length (SOD1^G37R mice [7]) was 4.13±0.36 cm. The “darifenacin in the blood” value [8] was “detected in the blood”.
